In patent publication EP4603105A1, “PHARMACEUTICAL COMPOSITION CONTAINING CYCLIC COMPOUND HAVING SELECTIVE KRAS INHIBITORY EFFECT AGAINST HRAS AND NRAS” (CHUGAI SEIYAKU KABUSHIKI KAISHA, priority 2022, dated 2024):
Like-named read-outs stand apart in the source and are kept apart here.

Tests used:
[1] = molecular target: GDP-bound NRAS wild-type protein (Homo sapiens, UniProt P01111); experiment: Binding to NRAS by surface plasmon resonance (SPR), KD and KD ratio to KRAS
Outline: (§1)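 Single-cycle kinetics on GDP-loaded biotin-Avi RAS captured to ~100–300 RU; 75 s ascending injections, 100 µL/min, 30°C. HBS pH 7.4 + 10 mM MgCl2/10 µM GDP/4% DMSO. 1:1 fit, KD.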

[2] = system: human lung cancer strain NCI-H441; experiment: NCI-H441 cell proliferation inhibitory activity (CellTiter-Glo, 4 days); type: cell-based; details: read-out: NCl-H441 IC50
Outline: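 Proliferation was scored by […] measured after the reagent was added to cultures kept at 37°C in 5% carbon dioxide.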

[3] = molecular target: HRAS wild-type protein (Homo sapiens, UniProt P01112); experiment: Binding to HRAS by surface plasmon resonance (SPR), KD and KD ratio to KRAS
HRAS wild-type protein, sequence (P01112 whole entry): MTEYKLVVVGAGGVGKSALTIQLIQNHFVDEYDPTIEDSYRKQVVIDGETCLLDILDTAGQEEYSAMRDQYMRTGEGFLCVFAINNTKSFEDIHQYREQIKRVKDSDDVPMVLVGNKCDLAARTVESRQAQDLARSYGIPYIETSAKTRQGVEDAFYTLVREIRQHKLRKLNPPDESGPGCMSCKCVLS
Outline: as §1

[4] = molecular target: GDP-bound KRAS wild-type protein (Homo sapiens, UniProt P01116); experiment: Binding to KRAS by surface plasmon resonance (SPR), dissociation constant KD; details: Single Cycle Kinetics
GDP-bound KRAS wild-type protein, sequence (P01116 1-188 isoform P01116-2): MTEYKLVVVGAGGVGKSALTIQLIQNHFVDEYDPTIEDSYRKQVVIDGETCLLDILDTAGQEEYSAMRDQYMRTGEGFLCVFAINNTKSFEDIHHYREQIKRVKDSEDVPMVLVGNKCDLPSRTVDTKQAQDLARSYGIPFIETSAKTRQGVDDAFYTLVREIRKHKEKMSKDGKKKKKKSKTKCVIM
Outline: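 Each cycle, GDP-bound biotin-Avi RAS was captured (~100–300 RU), compound concentrations were injected low to high for 75 s each at 100 µL/min, then the chip was regenerated. Buffer: HBS pH 7.4, 10 mM MgCl2, 10 µM GDP, 1 mM DTT, 4% DMSO; 30°C. KD from a 1:1 binding model.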

[5] = ratio of KD with respect to GDP-bound NRAS wild-type protein to KD with respect to KRAS
[6] = 50% proliferation inhibitory concentration, four days
[7] = ratio of KD with respect to HRAS wild-type protein to KD with respect to KRAS
[8] = ratio of KD for GDP-bound NRAS wild-type protein to KD for KRAS
[9] = ratio of KD for HRAS wild-type protein to KD for KRAS

GDP-bound NRAS wild-type protein, sequence (P01111 whole entry): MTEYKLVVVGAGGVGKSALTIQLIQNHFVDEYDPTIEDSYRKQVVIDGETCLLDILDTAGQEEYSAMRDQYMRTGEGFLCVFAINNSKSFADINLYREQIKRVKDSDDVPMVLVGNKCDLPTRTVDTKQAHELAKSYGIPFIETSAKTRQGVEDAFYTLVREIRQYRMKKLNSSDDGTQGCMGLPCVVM

Row | IC50 [2, 6] [nM] | Kd ([4]; 1:1 binding model) [nM] | IC50 ([2]; NCI-H441 cells, 4 days) [nM] | Kd [4] [nM] | SMILES | NRAS /KRAS [1, 5] | HRAS /KRAS [3, 7] | NRAS /KRAS [1, 8] | HRAS /KRAS [3, 9]
1 | 3.6 | 0.017 |  |  | CCO[C@@H]1C[C@H]2C(=O)NC3(CCCC3)C(=O)N(C)[C@@H](C3CCCC3)C(=O)N(C)[C@H](C(=O)N(C)C)CC(=O)N(C)[C@@H](CC)C(=O)N[C@@H]([C@@H](C)CC)C(=O)N(C)CC(=O)N(C)[C@H]3C[C@H](C)C(C)CN(C3=O)[C@@H](Cc3ccc(C(F)(F)F)cc3)C(=O)N(C)CC(=O)N[C@@H](CCc3cc(F)c(C(F)(F)F)c(F)c3)C(=O)N2C1 (stereo partly drawn) [PP1347] | B (a compound having 3 or more and less than 10 is denoted as B) | B (a compound having 3 or more and less than 10 is denoted as B) |  | 
2 | 58.8 | 0.65 |  |  | CCO[C@@H]1C[C@H]2C(=O)NC3(CCC3)C(=O)N(C)[C@@H](C(CC)CC)C(=O)N(C)[C@H](C(=O)N3CCOCC3)CC(=O)N(C)[C@@H](CC)C(=O)N[C@@H]([C@@H](C)CC)C(=O)N(C)CC(=O)N(C)[C@H]3C/C=C\CCN(C3=O)[C@@H](Cc3ccc(C(F)(F)F)cc3)C(=O)N(C)CC(=O)N[C@@H](CCc3cc(F)c(C(F)(F)F)c(F)c3)C(=O)N2C1 [PP1286] | AA (a compound having 20 or more is denoted as AA) | A (a compound having 10 or more and less than 20 is denoted as A) |  | 
3 |  |  | 71.7 | 1.4 | CCO[C@@H]1C[C@H]2C(=O)NC3(CC(C)(C)C3)C(=O)N(C)[C@@H](C3CCCC3)C(=O)N(C)[C@H](C(=O)N(C)CC)CC(=O)N(C)[C@@H]([C@H](C)OC)C(=O)N[C@@H]([C@@H](C)CC)C(=O)N3CCC[C@H]3C(=O)N(C)[C@H]3C/C=C\CCN(C3=O)[C@@H](Cc3ccc(C(F)(F)F)cc3)C(=O)N(C)CC(=O)N[C@@H](CCc3ccc(C(F)(F)F)c(OC)c3)C(=O)N2C1 [PP3222] |  |  | A (a compound having 10 or more and less than 20 is denoted as A) | A (a compound having 10 or more and less than 20 is denoted as A)
4 |  |  | 24.3 | 3 | CCCO[C@@H]1C[C@H]2C(=O)NC3(CC(C)(C)C3)C(=O)N(C)[C@@H](C3CCCC3)C(=O)N(C)[C@H](C(=O)N(C)CC)CC(=O)N(C)[C@@H](COCC)C(=O)N[C@@H]([C@@H](C)CC)C(=O)N3C[C@@H](C)C[C@H]3C(=O)N(C)[C@H]3C/C=C\CCN(C3=O)[C@@H](Cc3ccc(C(F)(F)F)cc3)C(=O)N(C)CC(=O)N[C@@H](CCc3cc(F)c(C(F)(F)F)c(F)c3)C(=O)N2C1 [PP3472] |  |  | A (a compound having 10 or more and less than 20 is denoted as A) | A (a compound having 10 or more and less than 20 is denoted as A)
5 | 11.4 | 0.13 |  |  | CCO[C@@H]1C[C@H]2C(=O)NC3(CCC3)C(=O)N(C)[C@@H](C3CCCC3)C(=O)N(C)[C@H](C(=O)N3CCCC3)CC(=O)N(C)[C@@H](CC(F)F)C(=O)N[C@@H]([C@@H](C)CC)C(=O)N(C)CC(=O)N(C)[C@H]3C/C=C\CCN(C3=O)[C@@H](Cc3ccc(C(F)(F)F)cc3)C(=O)N(C)CC(=O)N[C@@H](CCc3cc(F)c(C(F)(F)F)c(F)c3)C(=O)N2C1 [PP1298] | AA (a compound having 20 or more is denoted as AA) | A (a compound having 10 or more and less than 20 is denoted as A) |  | 
6 |  |  | 11.5 | 0.64 | CCO[C@@H]1C[C@H]2C(=O)OC3(CCC3)C(=O)N(C)[C@@H](C3CCCC3)C(=O)N(C)[C@H](C(=O)N(C)C)CC(=O)N(C)[C@@H]([C@@H](C)OC)C(=O)N[C@@H]([C@@H](C)CC)C(=O)N3CCC[C@H]3C(=O)N(C)[C@H]3C/C=C\CCN(C3=O)[C@@H](Cc3ccc(C)cc3)C(=O)N(C)CC(=O)N[C@@H](CCc3ccc(C(F)(F)F)c(OC)c3)C(=O)N2C1 [PP3392] |  |  | A (a compound having 10 or more and less than 20 is denoted as A) | B (a compound having 3 or more and less than 10 is denoted as B)
